For the experiment, the system named is L1210 tumor cells. The settings on record: 30 mg/Kg s.c. methionine-enkephalin where combined. The source says: Groups of BDF1 female mouse strain (16-20 gms) were inoculated with L1210 (leukemia) tumor cells (1×10^4, 1×10^3, or 1×10^2 cells) and observed for survival. The L1210 line of tumor cells was maintained in DBA/2 host mice. Ascitic fluid from the DBA/2 mice was used to inoculate the BDF1 mice transferred in RPMI 1640 buffer at pH 8-9).
In order to test for any synergistic effect of using an endogenous enkephalin with a known chemo-therapeutic agent, a study involving the inoculation of groups of mice with massive doses (1×10^6 ) of L1210 tumor cells was performed in a manner analogous to the previous examples transferred in RPMI 1640 at pH 7.

Read-outs that look alike come from different tables or passages of the source.

As to `N.N.[Cl][Pt][Cl]` [Cis-platin, cis-platin], the cumulative dead by setting is: (2 mg/Kg cis-platin, day 9) 3/20; (2 mg/Kg cis-platin, day 10) 13/20; (2 mg/Kg cis-platin, day 11) 14/20; (2 mg/Kg cis-platin, day 12) 15/20; (2 mg/Kg cis-platin, day 13) 17/20; (2 mg/Kg cis-platin, day 14) 19/20. The cumulative dead is, setting by setting: (4 mg/Kg cis-platin, day 11) 10/20; (4 mg/Kg cis-platin, day 12) 15/20; (4 mg/Kg cis-platin, day 13) 19/20; (4 mg/Kg cis-platin, day 15) 20/20; (single dose 8 mg/Kg cis-platin, day 9) 2/20; (single dose 8 mg/Kg cis-platin, day 12) 4/20. The cumulative dead (single dose 8 mg/Kg cis-platin, day 13) is 7/20; the cumulative dead (single dose 8 mg/Kg cis-platin, day 14) was 12/20; the cumulative dead (single dose 8 mg/Kg cis-platin, day 15) is recorded as 16/20; the cumulative dead (single dose 8 mg/Kg cis-platin, day 16) was 18/20; the cumulative dead (single dose 8 mg/Kg cis-platin, day 18) was 19/20; the cumulative dead (single dose 8 mg/Kg cis-platin, day 20) is 20/20. Moreover, the “Median Day of Death (ED50)” value (2 mg/Kg cis-platin, saline control 9 Days) was determined as 10 days; the “Median Day of Death (ED50)” value (4 mg/Kg cis-platin, saline control 8 Days) is 10 days; the “Median Day of Death (ED50)” value (8 mg/Kg cis-platin, saline control 8 days) is given as 12 days.

The values are drawn from US4801614A, “Process for using endogenous enkephalins and endorphins to inhibit growth of tumerous cells” (TNI Pharmaceuticals, Inc., priority 1987, dated 1989).
